Experimental data as given in PMC9229843, “Cancer-Related Somatic Mutations in Transmembrane Helices Alter Adenosine A1 Receptor Pharmacology” (Molecules, 2022).
Where a chain is given by its changes, count along the chain named.

Columns and labels:
hA1AR H78L^3.23 = biological target: T1, hA1AR H78L^3.23 (Homo sapiens, UniProt P30542, H78L); settings: [35S]GTPγS; ratio over basal activity of wild type hA1AR
T1 sequence (P30542 1-326 H78L): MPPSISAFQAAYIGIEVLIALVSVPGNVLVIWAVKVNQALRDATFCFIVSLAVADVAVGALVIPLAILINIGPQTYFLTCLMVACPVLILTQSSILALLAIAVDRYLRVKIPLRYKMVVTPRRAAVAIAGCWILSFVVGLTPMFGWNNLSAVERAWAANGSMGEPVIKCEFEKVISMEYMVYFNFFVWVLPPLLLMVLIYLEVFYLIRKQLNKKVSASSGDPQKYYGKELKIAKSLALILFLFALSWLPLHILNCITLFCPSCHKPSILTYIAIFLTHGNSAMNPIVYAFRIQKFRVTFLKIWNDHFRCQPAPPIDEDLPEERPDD
Procedure: (§1) Transient transfection of CHO cells with wild type or mutated hA1AR plasmid constructs was performed using a polyethylenimine (PEI) method. Cells were seeded in 10-cm culture dishes to achieve 50–60% confluency 24 h prior to transfection. On the day of transfection, cells were transfected with a PEI: DNA ratio of 3:1 and a plasmid DNA amount of 10 μg/dish. Moreover, 24 h post-transfection, the medium was refreshed, and 48 h after transfection, cells were collected and membranes were prepared as previously described. Membranes were aliquoted in 250 or 100 μL and stored at −80 °C. Membrane protein concentrations were determined using the BCA method.
(§2) [^35S]GTPγS binding assays were adapted from a previously published method. […] Then, 20 µL of [^35S]GTPγS (final concentration of 0.3 nM) was added to each well, followed by 90 min of incubation at 25 °C. Incubations were terminated and filter-bound radioactivity was measured as described above.
(§3) All experimental data were analyzed by GraphPad Prism 7.0 or 8.0 (GraphPad Software Inc., San Diego, CA, USA). Data from yeast liquid growth and [^35S]GTPγS binding assays were analyzed by non-linear regression using “log (agonist) vs. response (three parameters)” or “log (inhibitor) vs. response (three parameters)” to obtain potency (EC50), inhibitory potency (IC50), and efficacy (Emax or Imax) values. The radioligand displacement curves were obtained from a statistically preferred one-site or two-site binding model. pKi values were calculated from pIC50 values using the Cheng–Prusoff equation, where KD values were obtained from the homologous competition assays from this study and calculated by non-linear regression using “one site–homologous” [62].

hA1AR L134F^4.52 = biological target: T2, hA1AR L134F^4.52 (Homo sapiens, UniProt P30542, L134F); settings: [35S]GTPγS; ratio over basal activity of wild type hA1AR
T2 sequence (P30542 1-326 L134F): T1 sequence (P30542 1-326 H78L) with L78H, L134F
Procedure: as §1, §2, §3

hA1AR G279S^7.44 = biological target: T3, hA1AR G279S^7.44 (Homo sapiens, UniProt P30542, G279S); settings: [35S]GTPγS; ratio over basal activity of wild type hA1AR
T3 sequence (P30542 1-326 G279S): T1 sequence (P30542 1-326 H78L) with L78H, G279S
Procedure: as §1, §2, §3

wild type hA1AR = biological target: T4, wild type hA1AR (Homo sapiens, UniProt P30542); settings: [35S]GTPγS; ratio over basal activity of wild type hA1AR
T4 sequence (P30542 1-326): T1 sequence (P30542 1-326 H78L) with L78H
Procedure: as §1, §2, §3

hA1AR S246T^6.47 = biological target: T5, hA1AR S246T^6.47 (Homo sapiens, UniProt P30542, S246T); settings: [35S]GTPγS; ratio over basal activity of wild type hA1AR
T5 sequence (P30542 1-326 S246T): T1 sequence (P30542 1-326 H78L) with L78H, S246T
Procedure: as §1, §2, §3

hA1AR W188C^5.46 = biological target: T6, hA1AR W188C^5.46 (Homo sapiens, UniProt P30542, W188C)
T6 sequence (P30542 1-326 W188C): T1 sequence (P30542 1-326 H78L) with L78H, W188C
Procedure: as §1, §2, §3

SMILES: OC[C@H]1O[C@@H](n2cnc3c(NC4CCCC4)ncnc32)[C@H](O)[C@@H]1O [CPA, N^6-cyclopentyladenosine]
- Emax (hA1AR H78L^3.23): 1.40 ± 0.10
- Emax (hA1AR L134F^4.52): 1.48 ± 0.24
- Emax (hA1AR G279S^7.44): 1.57 ± 0.20
- Emax (wild type hA1AR): 1.48 ± 0.13
- Emax (hA1AR S246T^6.47): 1.21 ± 0.10
- Emax (hA1AR W188C^5.46; [35S]GTPγS, ratio over basal activity of wild type hA1AR): 1.94 ± 0.02
- decrease in the potency value versus wild type (hA1AR W188C^5.46; mammalian system): 10 fold
